Data published in patent publication US20220411419A1, “SMALL MOLECULE MODULATORS OF MHC-I” (RetroVirox, Inc., priority 2018, published 2022).

Key:
in vitro = conditions: human, uninfected SupT1 cells
[1] = system: MHC-I surface expression in uninfected SupT1 cells; assay: Increase of MHC-I surface expression in uninfected SupT1 cells (mean-MHC-I EC50, FIG. 6A); assay type: cell-based; conditions: Homo sapiens, SUP-T1, 24 h with compound, read-out: EC50 for MHC-I increased surface expression
Method: In some instances, the effect of small molecules in modulation of surface MHC-I was monitored in uninfected (rather than HIV-infected) Sup-T1 cells (FIG. 6A). In these experiments uninfected SupT1 cells were incubated with the compounds for 24 h and then the increase in MHC-I surface expression was monitored by staining cells with the biotinylated HLA-A2/28 antibody (One Lambda, clone BIH0037), washed and then incubated with streptavidin conjugated with APC (Streptavidin APC, EBiosciences, 17-4317) to reveal the anti-HLA-A2 bound antibody. After washing the cells again they were fixed with 0.5% paraformaldehyde and submitted to flow cytometry to determine the levels of MHC-I surface expression (APC fluorescence) in live cells (as estimated by FS/SS in these cells). […] From these assays “mean-MHC-I” EC50 values were generated to indicate the concentration of compound that augments the mean surface levels of MHC-I to 50% of the highest levels accomplished by the compound, as compared to cells treated with vehicle alone. […] Therefore, both assays: inhibition of MHC-I downmodulation in HIV infected SupT1 cells, or increase in surface MHC-I in uninfected SupT1 cells, were indistinctively used to monitor the potency of the compounds to modulate surface expression of MHC-I in SupT1 cells.
Table 7 show the activity of selected compounds utilizing the assay in which the increase of MHC-I surface expression in uninfected SupT1 cells was evaluated, as shown in FIG. 6A. The EC50 for MHC-I increased surface expression was determined using the methods described in Example 2 and illustrated in FIG. 6A.

[2] = system: downmodulation of MHC-I molecules expressed on the surface of HIV infected SupT1 cells; assay: cells; conditions: for EC50: Human immunodeficiency virus 1, SUP-T1, read-out: EC50 for inhibition of MHC-I downmodulation utilizing the R1 parameter

Structure (SMILES) | CC50 (in vitro) | EC50 [1] | CC50 at 48 h (in vitro) | EC50 [2] | activity at 100 µM ([2]; Human immunodeficiency virus 1, SUP-T1, read-out: R1 @ 100 μM (R1 value for MHC-I downmodulation as % of the vehicle control))
O=C(COc1cccc2[nH]ccc12)N(CC(F)(F)F)c1nc2c(s1)CCCC2 [Compound 165, 2-((1H-Indol-4-yl)oxy)-N-(4,5,6,7-tetrahydrobenzo[d]thiazol-2-yl)-N-(2,2,2-trifluoroethyl)acetamide] | > 125 µM | 1 µM |  |  | 
Cc1cc(C)nc(NC(=O)COc2cccc3c2OC(C)(C)C3)c1 [Compound 169, 2-((2,2-Dimethyl-2,3-dihydrobenzofuran-7-yl)oxy)-N-(4,6-dimethylpyridin-2-yl)acetamide] | > 125 µM | > 25 µM |  |  | 
CC1(C)Cc2cc(C(F)(F)F)cc(OCC(=O)Nc3nc4c(s3)CCCC4)c2O1 [Compound 173, 2-((2,2-Dimethyl-5-(trifluoromethyl)-2,3-dihydrobenzofuran-7-yl)oxy)-N-(4,5,6,7-tetrahydrobenzo[d]thiazol-2-yl)acetamide] | > 125 µM | 2.5 µM |  |  | 
Cc1nc(NC(=O)COc2cc(C(F)(F)F)cc3c2OC(C)(C)C3)ccc1C1CC1 [Compound 174, N-(5-Cyclopropyl-6-methylpyridin-2-yl)-2-((2,2-dimethyl-5-(trifluoromethyl)-2,3-dihydrobenzofuran-7-yl)oxy)acetamide] | > 125 µM | 2.5 µM |  |  | 
Cc1nc(NC(=O)COc2cccc3c2OC(C)(C)C3)ccc1C#N [Compound 168, N-(5-Cyano-6-methylpyridin-2-yl)-2-((2,2-dimethyl-2,3-dihydrobenzofuran-7-yl)oxy)acetamide] | > 125 µM | > 25 µM |  |  | 
COC(=O)CN(C(=O)COc1cccc2c1OC(C)(C)C2)c1nc2c(s1)CCCC2 [Compound 99, Methyl 2-(2-((2,2-dimethyl-2,3-dihydrobenzofuran-7-yl)oxy)-N-(4,5,6,7-tetrahydrobenzo[d]thiazol-2-yl)acetamido)acetate] |  |  | > 125 µM | 22 µM | 
Cc1csc(N(C(=O)COc2cccc3c2OC(C)(C)C3)c2ccccn2)n1 [Compound 91, 2-((2,2-Dimethyl-2,3-dihydrobenzofuran-7-yl)oxy)-N-(4-methylthiazol-2-yl)-N-(pyridin-2-yl)acetamide] |  |  | > 100 µM | 0.89 µM | 
Cn1ccnc1CN(C(=O)COc1cccc2c1OC(C)(C)C2)c1nc2c(s1)CCCC2 [Compound 46, 2-((2,2-Dimethyl-2,3-dihydrobenzofuran-7-yl)oxy)-N-((1-methyl-1H-imidazol-2-yl)methyl)-N-(4,5,6,7-tetrahydrobenzo[d]thiazol-2-yl)acetamide] |  |  | > 125 µM | 0.059 µM | 
CC1(C)Cc2cccc(OCC(=O)Nc3nc4cc(F)ccc4s3)c2O1 [Compound 148, 2-((2,2-Dimethyl-2,3-dihydrobenzofuran-7-yl)oxy)-N-(5-fluorobenzo[d]thiazol-2-yl)acetamide] |  |  | > 100 µM | 2 µM | 
C=Cc1ccc(NC(=O)COc2cccc3c2OC(C)(C)C3)nn1 [Compound 84, 2-((2,2-Dimethyl-2,3-dihydrobenzofuran-7-yl)oxy)-N-(6-vinylpyridazin-3-yl)acetamide] |  |  | > 100 µM | 0.89 µM | 
COc1cccc(F)c1OCC(=O)N(C)c1nc2c(s1)CCCC2 [Compound 124, 2-(2-Fluoro-6-methoxyphenoxy)-N-methyl-N-(4,5,6,7-tetrahydrobenzo[d]thiazol-2-yl)acetamide] |  |  | > 125 µM | 0.26 µM | 
COc1cccc(OC)c1OCC(=O)N(C)c1nc2c(s1)CCCC2 [Compound 131, 2-(2,6-Dimethoxyphenoxy)-N-methyl-N-(4,5,6,7-tetrahydrobenzo[d]thiazol-2-yl)acetamide] |  |  | ~125 µM | 2.6 µM | 
CC1(C)Cc2cccc(OCC(=O)Nc3nc4c(F)c(F)ccc4s3)c2O1 [Compound 6, N-(4,5-Difluorobenzo[d]thiazol-2-yl)-2-((2,2-dimethyl-2,3-dihydrobenzofuran-7-yl)oxy)acetamide] |  |  | 36 µM | 6.3 µM | 
CC1(C)Cc2cccc(CCC(=O)Nc3nc4c(s3)CCCC4)c2O1 [Compound 105, 3-(2,2-Dimethyl-2,3-dihydrobenzofuran-7-yl)-N-(4,5,6,7-tetrahydrobenzo[d]thiazol-2-yl)propanamide] |  |  | > 125 µM | 0.39 µM | 
C=Cc1ccc(NC(=O)COc2cccc3c2OC(C)(C)C3)nc1C [Compound 74, 2-((2,2-Dimethyl-2,3-dihydrobenzofuran-7-yl)oxy)-N-(6-methyl-5-vinylpyridin-2-yl)acetamide] |  |  | > 125 µM | 1.3 µM | 
CCc1ccc(NC(=O)COc2cccc3c2OC(C)(C)C3)nn1 [Compound 85, 2-((2,2-Dimethyl-2,3-dihydrobenzofuran-7-yl)oxy)-N-(6-ethylpyridazin-3-yl)acetamide] |  |  | > 100 µM | 0.38 µM | 
Cc1ccnc(NC(=O)COc2cccc3c2OC(C)(C)C3)n1 [Compound 179, 2-((2,2-Dimethyl-2,3-dihydrobenzofuran-7-yl)oxy)-N-(4-methylpyrimidin-2-yl)acetamide] |  |  | > 100 µM | > 25 µM | 
C=C(C)c1ccc(NC(=O)COc2cccc3c2OC(C)(C)C3)nc1 [Compound 69, 2-((2,2-Dimethyl-2,3-dihydrobenzofuran-7-yl)oxy)-N-(5-(prop-1-en-2-yl)pyridin-2-yl)acetamide] |  |  | > 125 µM | 5 µM | 
CC1(C)Cc2cccc(OCC(=O)Nc3nc4c(s3)COCC4)c2O1 [Compound 175, N-(6,7-Dihydro-4H-pyrano[4,3-d]thiazol-2-yl)-2-((2,2-dimethyl-2,3-dihydrobenzofuran-7-yl)oxy)acetamide] |  |  | 10 µM | 1.2 µM | 
O=C(COc1cccc2c1OCCO2)Nc1nc2ccccc2s1 [Compound 176, N-(Benzo[d]thiazol-2-yl)-2-((2,3-dihydrobenzo[b][1,4]dioxin-5-yl)oxy) acetamide] |  |  | > 100 µM | 8.9 µM | 
Cc1ccccc1OCC(=O)N(C)c1nc2c(s1)CCCC2 [Compound 125, N-Methyl-N-(4,5,6,7-tetrahydrobenzo[d]thiazol-2-yl)-2-(o-tolyloxy) acetamide] |  |  | > 125 µM | 0.88 µM | 
Cc1cccc(CN(C(=O)COc2cccc3c2OC(C)(C)C3)c2nc3c(s2)CCCC3)n1 [Compound 39, 2-((2,2-Dimethyl-2,3-dihydrobenzofuran-7-yl)oxy)-N-((6-methylpyridin-2-yl)methyl)-N-(4,5,6,7-tetrahydrobenzo[d]thiazol-2-yl)acetamide] |  |  | > 100 µM | 0.02 µM | 
Cc1csc(NC(=O)COc2cccc3[nH]ccc23)n1 [Compound 133, 2-((1H-Indol-4-yl)oxy)-N-(4-methylthiazol-2-yl)acetamide] |  |  | > 100 µM | 1.5 µM | 
CC1(C)Cc2cccc(OCC(=O)Nc3ccc4c(n3)CCC4)c2O1 [Compound 163, N-(6,7-dihydro-5H-cyclopenta[b]pyridin-2-yl)-2-((2,2-dimethyl-2,3-dihydrobenzofuran-7-yl)oxy)acetamide] |  |  | > 125 µM | 0.37 µM | 
CC1(C)Cc2cccc(OCC(=O)Nc3ccc(Cl)nn3)c2O1 [Compound 24, N-(6-Chloropyridazin-3-yl)-2-((2,2-dimethyl-2,3-dihydrobenzofuran-7-yl)oxy)acetamide] |  |  | > 100 µM | 4.5 µM | 
Cc1cc2c(OCC(=O)N(C)c3nc4c(s3)CCCC4)cccc2[nH]1 [Compound 123, N-Methyl-2-((2-methyl-1H-indol-4-yl)oxy)-N-(4,5,6,7-tetrahydrobenzo[d]thiazol-2-yl)acetamide] |  |  | > 125 µM | 0.013 µM | 
COc1ccccc1OCC(=O)Nc1nc2c(C)cccc2s1 [Compound 189, 2-(2-Methoxyphenoxy)-N-(4-methylbenzo[d]thiazol-2-yl)acetamide] | > 100 µM |  | > 100 µM | > 25 µM | 39%
CC1(C)Cc2cccc(OCC(=O)Nc3nc4c(Cl)cccc4s3)c2O1 [Compound 145, N-(4-Chlorobenzo[d]thiazol-2-yl)-2-((2,2-dimethyl-2,3-dihydrobenzofuran-7-yl)oxy)acetamide] |  |  | > 90 µM | 0.091 µM | 
Cc1ccc(NC(=O)COc2cccc3c2OC(C)(C)C3)nc1C [Compound 73, 2-((2,2-Dimethyl-2,3-dihydrobenzofuran-7-yl)oxy)-N-(5,6-dimethylpyridin-2-yl)acetamide] |  |  | > 100 µM | 0.21 µM | 
CC1(C)Cc2cccc(OCC(=O)Nc3nc4c(s3)CCCC4)c2O1 [Compound 195, 2-((2,2-Dimethyl-2,3-dihydrobenzofuran-7-yl)oxy)-N-(4,5,6,7-tetrahydrobenzo[d]thiazol-2-yl)acetamide] |  |  | > 125 µM | 0.053 µM | 
